Assay results reported in ChEMBL document CHEMBL4321825, “Discovery of a Series of 5-Azaquinazolines as Orally Efficacious IRAK4 Inhibitors Targeting MyD88L265P Mutant Diffuse Large B Cell Lymphoma” (J Med Chem, 2019).
≈ marks a conversion by molar mass, not a printed value. Calls of active or inactive are those of the source. No cut-off for these calls is given here.

Tests used:
[1] = biological target: T1, Interleukin-1 receptor-associated kinase 4 (Homo sapiens, UniProt Q9NWZ3); assay: Inhibition of IRAK4 (unknown origin) in presence of 5 mM ATP by enzymatic assay
T1 sequence (Q9NWZ3 whole entry): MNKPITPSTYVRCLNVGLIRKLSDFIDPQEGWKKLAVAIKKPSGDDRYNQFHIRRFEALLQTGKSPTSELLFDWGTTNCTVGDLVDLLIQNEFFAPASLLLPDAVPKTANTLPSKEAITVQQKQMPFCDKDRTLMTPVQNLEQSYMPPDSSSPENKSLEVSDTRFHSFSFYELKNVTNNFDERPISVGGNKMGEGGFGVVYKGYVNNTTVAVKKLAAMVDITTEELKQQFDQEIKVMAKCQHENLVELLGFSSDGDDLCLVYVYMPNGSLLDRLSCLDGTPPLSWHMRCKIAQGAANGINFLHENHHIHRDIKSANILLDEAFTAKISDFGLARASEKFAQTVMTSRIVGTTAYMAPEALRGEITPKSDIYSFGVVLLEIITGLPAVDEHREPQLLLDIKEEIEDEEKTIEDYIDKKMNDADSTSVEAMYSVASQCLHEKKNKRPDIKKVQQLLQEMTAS

[2] = biological target: T1, Interleukin-1 receptor-associated kinase 4; assay: Inhibition of IRAK4 (unknown origin) by cell based assay
[3] = Lipophilicity, logD of the compound at pH 7.4 by shake-flask assay; assay type: physicochemical; details: buffer
[4] = Intrinsic clearance in human hepatocytes assessed per million cells; assay type: ADME, cell-based, Hepatocyte; details: read-out: CLH
[5] = Intrinsic clearance in rat hepatocytes assessed per million cells; assay type: ADME, cell-based, Hepatocyte; details: read-out: CLH
[6] = Intrinsic permeability in human Caco2 cells; assay type: ADME, cell-based; details: Caco-2
[7] = Efflux ratio in human Caco2 cells; assay type: ADME, cell-based; details: Caco-2
[8] = biological target: T2, Interleukin-1 receptor-associated kinase 4 (Homo sapiens) (UniProt Q9NWZ3); assay: Inhibition of IRAK4 (unknown origin) at 0.1 uM relative to control
T2 sequence (whole entry): T1 sequence (Q9NWZ3 whole entry)

[9] = biological target: T3, Interleukin-1 receptor-associated kinase 1 (Homo sapiens, UniProt P51617); assay: Inhibition of IRAK1 (unknown origin) at 0.1 uM relative to control
Target sequence in this assay (P51617 whole entry, looked up): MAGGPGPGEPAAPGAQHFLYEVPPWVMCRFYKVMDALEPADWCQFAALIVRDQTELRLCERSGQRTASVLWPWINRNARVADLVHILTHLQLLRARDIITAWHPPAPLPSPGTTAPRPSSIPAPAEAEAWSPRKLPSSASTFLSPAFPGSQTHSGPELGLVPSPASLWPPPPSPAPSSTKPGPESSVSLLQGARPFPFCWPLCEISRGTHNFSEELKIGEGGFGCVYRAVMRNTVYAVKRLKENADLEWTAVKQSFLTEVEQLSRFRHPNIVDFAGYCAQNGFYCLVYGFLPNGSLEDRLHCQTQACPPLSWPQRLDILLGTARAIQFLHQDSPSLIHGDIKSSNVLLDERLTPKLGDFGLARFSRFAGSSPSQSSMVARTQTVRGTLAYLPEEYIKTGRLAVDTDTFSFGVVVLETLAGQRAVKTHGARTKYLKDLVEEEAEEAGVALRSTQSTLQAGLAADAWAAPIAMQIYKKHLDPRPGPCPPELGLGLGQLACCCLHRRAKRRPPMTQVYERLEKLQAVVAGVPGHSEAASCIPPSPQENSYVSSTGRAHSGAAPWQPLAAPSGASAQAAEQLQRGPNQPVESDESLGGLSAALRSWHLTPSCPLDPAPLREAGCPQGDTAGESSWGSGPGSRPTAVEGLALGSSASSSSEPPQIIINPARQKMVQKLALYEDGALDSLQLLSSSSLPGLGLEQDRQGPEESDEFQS

[10] = biological target: T3, Interleukin-1 receptor-associated kinase 1; assay: Inhibition of IRAK1 (unknown origin)
Target sequence in this assay (P51617 whole entry): as the sequence (P51617 whole entry, looked up) above

[11] = biological target: Dual specificity protein kinase CLK1 (Homo sapiens, UniProt P49759); assay: Inhibition of human recombinant CLK1 expressed in Escherichia coli
Sequence of Dual specificity protein kinase CLK1 (P49759 whole entry): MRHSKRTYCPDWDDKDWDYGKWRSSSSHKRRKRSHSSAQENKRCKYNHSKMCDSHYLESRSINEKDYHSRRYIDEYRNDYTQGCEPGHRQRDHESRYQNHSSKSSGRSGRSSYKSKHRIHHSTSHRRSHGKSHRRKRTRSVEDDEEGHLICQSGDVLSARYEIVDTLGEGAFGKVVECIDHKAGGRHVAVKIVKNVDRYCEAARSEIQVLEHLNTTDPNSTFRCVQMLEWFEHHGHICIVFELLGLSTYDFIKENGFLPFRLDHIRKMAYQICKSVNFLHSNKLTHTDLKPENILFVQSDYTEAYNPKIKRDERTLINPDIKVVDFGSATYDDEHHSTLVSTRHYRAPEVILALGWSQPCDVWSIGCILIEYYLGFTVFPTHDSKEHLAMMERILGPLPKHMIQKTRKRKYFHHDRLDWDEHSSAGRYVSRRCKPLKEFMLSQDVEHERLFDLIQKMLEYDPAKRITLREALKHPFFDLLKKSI

[12] = biological target: Dual specificity protein kinase CLK2 (Homo sapiens, UniProt P49760); assay: Inhibition of human recombinant CLK2 expressed in Baculovirus system
Sequence of Dual specificity protein kinase CLK2 (P49760 whole entry): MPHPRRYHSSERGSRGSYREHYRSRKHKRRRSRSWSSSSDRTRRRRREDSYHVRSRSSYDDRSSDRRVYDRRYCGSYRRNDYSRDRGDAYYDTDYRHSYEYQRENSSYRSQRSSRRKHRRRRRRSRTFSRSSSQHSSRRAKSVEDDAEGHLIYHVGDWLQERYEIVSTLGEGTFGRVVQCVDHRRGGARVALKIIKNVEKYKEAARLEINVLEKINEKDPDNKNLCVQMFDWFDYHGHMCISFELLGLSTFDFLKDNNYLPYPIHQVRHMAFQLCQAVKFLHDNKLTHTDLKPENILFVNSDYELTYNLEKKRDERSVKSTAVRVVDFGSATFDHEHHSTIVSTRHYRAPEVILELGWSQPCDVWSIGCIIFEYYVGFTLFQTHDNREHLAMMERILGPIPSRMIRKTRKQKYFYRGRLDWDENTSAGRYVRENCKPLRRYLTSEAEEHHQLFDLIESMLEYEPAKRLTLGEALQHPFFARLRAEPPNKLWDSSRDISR

[13] = biological target: Dual specificity protein kinase CLK3 (Homo sapiens, UniProt P49761); assay: Inhibition of human recombinant CLK3 expressed in Baculovirus system
Sequence of Dual specificity protein kinase CLK3 (P49761 whole entry): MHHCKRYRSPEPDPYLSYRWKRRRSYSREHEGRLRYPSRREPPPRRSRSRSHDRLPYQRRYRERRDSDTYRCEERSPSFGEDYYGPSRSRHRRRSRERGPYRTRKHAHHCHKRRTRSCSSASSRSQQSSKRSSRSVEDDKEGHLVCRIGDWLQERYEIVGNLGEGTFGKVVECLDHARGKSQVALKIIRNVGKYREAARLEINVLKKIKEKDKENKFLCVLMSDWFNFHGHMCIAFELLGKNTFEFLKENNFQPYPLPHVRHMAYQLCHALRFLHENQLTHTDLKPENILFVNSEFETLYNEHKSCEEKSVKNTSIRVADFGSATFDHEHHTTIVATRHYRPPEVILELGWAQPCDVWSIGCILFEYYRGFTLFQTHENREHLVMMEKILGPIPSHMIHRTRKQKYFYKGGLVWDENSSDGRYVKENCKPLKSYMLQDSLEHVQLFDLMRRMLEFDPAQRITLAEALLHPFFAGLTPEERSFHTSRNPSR

[14] = biological target: Dual specificity protein kinase CLK4 (Homo sapiens, UniProt Q9HAZ1); assay: Inhibition of human recombinant CLK4 expressed in Baculovirus system
Sequence of Dual specificity protein kinase CLK4 (Q9HAZ1 whole entry): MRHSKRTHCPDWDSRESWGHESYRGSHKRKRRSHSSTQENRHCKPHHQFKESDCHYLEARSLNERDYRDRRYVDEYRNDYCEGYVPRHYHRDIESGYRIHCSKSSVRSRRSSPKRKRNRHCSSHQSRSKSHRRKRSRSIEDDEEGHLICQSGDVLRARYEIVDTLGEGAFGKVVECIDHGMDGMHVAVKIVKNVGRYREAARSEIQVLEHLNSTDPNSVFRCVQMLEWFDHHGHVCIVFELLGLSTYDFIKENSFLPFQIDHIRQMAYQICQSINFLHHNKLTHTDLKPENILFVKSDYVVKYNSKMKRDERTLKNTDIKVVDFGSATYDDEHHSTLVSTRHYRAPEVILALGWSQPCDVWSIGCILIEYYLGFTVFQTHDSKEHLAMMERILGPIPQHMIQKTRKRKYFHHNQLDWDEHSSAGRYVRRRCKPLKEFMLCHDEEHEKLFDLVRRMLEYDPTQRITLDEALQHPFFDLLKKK

[15] = biological target: Cyclin-dependent kinase 7 (Homo sapiens, UniProt P50613); assay: Inhibition of CDK7 (unknown origin)
Sequence of Cyclin-dependent kinase 7 (P50613 whole entry): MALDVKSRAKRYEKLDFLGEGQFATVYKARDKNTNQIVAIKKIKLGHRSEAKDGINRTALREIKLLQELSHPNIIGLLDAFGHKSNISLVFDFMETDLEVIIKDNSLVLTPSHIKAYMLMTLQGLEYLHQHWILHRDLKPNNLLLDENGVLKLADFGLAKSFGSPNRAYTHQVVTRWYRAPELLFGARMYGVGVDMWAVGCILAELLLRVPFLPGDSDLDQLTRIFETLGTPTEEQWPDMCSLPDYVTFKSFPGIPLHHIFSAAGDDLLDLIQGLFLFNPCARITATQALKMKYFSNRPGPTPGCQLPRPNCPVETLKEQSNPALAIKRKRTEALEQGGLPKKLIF

CDK8/Cyclin C = CDK8/Cyclin C (Homo sapiens, UniProt P49336); assay: Inhibition of human recombinant CDK8/cyclinC expressed in Baculovirus system
Sequence of CDK8/Cyclin C (P49336 whole entry): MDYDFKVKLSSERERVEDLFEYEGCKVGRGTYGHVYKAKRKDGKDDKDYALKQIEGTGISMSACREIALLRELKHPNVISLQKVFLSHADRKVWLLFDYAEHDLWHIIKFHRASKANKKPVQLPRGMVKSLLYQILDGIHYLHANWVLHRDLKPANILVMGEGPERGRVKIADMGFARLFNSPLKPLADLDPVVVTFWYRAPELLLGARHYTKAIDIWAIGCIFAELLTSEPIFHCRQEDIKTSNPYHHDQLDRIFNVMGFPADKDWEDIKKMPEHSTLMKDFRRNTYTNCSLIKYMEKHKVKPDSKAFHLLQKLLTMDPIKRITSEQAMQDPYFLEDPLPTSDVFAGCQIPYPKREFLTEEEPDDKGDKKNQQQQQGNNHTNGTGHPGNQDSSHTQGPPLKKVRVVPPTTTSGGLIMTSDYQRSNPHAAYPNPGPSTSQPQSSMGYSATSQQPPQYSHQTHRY
Sequence of CDK8/Cyclin C (P24863 whole entry, further chain): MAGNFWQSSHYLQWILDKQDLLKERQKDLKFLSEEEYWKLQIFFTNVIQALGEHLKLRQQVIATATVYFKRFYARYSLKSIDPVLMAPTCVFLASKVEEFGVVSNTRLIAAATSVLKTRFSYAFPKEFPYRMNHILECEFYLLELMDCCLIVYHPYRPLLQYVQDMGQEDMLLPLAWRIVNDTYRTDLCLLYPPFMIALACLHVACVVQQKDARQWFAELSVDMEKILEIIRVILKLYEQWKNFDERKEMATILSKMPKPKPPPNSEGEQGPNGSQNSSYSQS

[16] = biological target: Cyclin-dependent kinase 9 (Homo sapiens, UniProt P50750); assay: Inhibition of CDK9 (unknown origin)
Sequence of Cyclin-dependent kinase 9 (P50750 whole entry): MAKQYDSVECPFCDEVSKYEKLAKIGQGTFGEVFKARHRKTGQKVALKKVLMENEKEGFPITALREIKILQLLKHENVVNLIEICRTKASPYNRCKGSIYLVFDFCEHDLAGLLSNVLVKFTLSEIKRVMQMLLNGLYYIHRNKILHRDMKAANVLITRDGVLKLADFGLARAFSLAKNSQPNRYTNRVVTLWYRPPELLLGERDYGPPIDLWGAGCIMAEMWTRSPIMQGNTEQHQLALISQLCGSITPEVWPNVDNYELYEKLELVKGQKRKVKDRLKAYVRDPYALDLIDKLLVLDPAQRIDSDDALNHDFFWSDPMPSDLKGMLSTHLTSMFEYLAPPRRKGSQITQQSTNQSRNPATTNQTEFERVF

Homo sapiens [17] = species: Homo sapiens; assay: Selectivity index, ratio of IC50 for inhibition of IRAK1 (unknown origin) to IC50 for inhibition of IRAK4 (unknown origin) in presence of 5 mM ATP by enzymatic assay
Homo sapiens [18] = species: Homo sapiens; assay: Selectivity index, ratio of IC50 for inhibition of human recombinant CLK1 expressed in Escherichia coli to IC50 for inhibition of IRAK4 (unknown origin) in presence of 5 mM ATP by enzymatic assay
Homo sapiens [19] = species: Homo sapiens; assay: Selectivity index, ratio of IC50 for inhibition of human recombinant CLK2 expressed in Baculovirus system to IC50 for inhibition of IRAK4 (unknown origin) in presence of 5 mM ATP by enzymatic assay
Homo sapiens [20] = species: Homo sapiens; assay: Selectivity index, ratio of IC50 for inhibition of human recombinant CLK3 expressed in Baculovirus system to IC50 for inhibition of IRAK4 (unknown origin) in presence of 5 mM ATP by enzymatic assay
Homo sapiens [21] = species: Homo sapiens; assay: Selectivity index, ratio of IC50 for inhibition of human recombinant CLK4 expressed in Baculovirus system to IC50 for inhibition of IRAK4 (unknown origin) in presence of 5 mM ATP by enzymatic assay
Homo sapiens [22] = species: Homo sapiens; assay: Selectivity index, ratio of IC50 for inhibition of CDK7 (unknown origin) to IC50 for inhibition of IRAK4 (unknown origin) in presence of 5 mM ATP by enzymatic assay
Homo sapiens [23] = species: Homo sapiens; assay: Selectivity index, ratio of IC50 for inhibition of human recombinant CDK8/cyclinC expressed in Baculovirus system to IC50 for inhibition of IRAK4 (unknown origin) in presence of 5 mM ATP by enzymatic assay
Homo sapiens [24] = species: Homo sapiens; assay: Selectivity index, ratio of IC50 for inhibition of CDK9 (unknown origin) to IC50 for inhibition of IRAK4 (unknown origin) in presence of 5 mM ATP by enzymatic assay
[25] = biological target: T2, Interleukin-1 receptor-associated kinase 4 (Homo sapiens); assay: Inhibition of IRAK4 in human OCI-LY10 cells assessed as decrease in pIKBalpha levels at 0.3 uM in presence of 3 nM ibrutinib incubated for 14 hrs by Western blotting analysis relative to control; assay type: cell-based
[26] = Unbound fraction in rat plasma at 37 degC by equilibrium dialysis; assay type: ADME, cell-free
[27] = Unbound fraction in mouse plasma at 37 degC by equilibrium dialysis; assay type: ADME, cell-free
[28] = Unbound fraction in human plasma at 37 degC by equilibrium dialysis; assay type: ADME, cell-free
[29] = Plasma clearance in Han Wistar rat at 1 mg/kg, iv; assay type: ADME, organism-based
[30] = Volume of distribution at steady state in Han Wistar rat at 1 mg/kg, iv; assay type: ADME, organism-based; details: in vivo, read-out: Vdss
[31] = Oral bioavailability in Han Wistar rat at 2 mg/kg; assay type: ADME, organism-based; details: in vivo
[32] = AUC in SCID mouse at 50 mg/kg, po; assay type: ADME, organism-based; details: in vivo
[33] = Aqueous solubility in pH 7.4 phosphate buffer; assay type: physicochemical
OCI-Ly10 [34] = assay: Growth inhibition of human OCI-LY10 cells at 10 uM incubated for 3 days by Alamar blue dye based fluorescence assay (reference value: 3%); assay type: functional; details: OCI-Ly10, 72 h, read-out: GI
OCI-Ly10 [35] = assay: Growth inhibition of human OCI-LY10 cells at 3.3 uM incubated for 3 days by Alamar blue dye based fluorescence assay (reference value: 3%); assay type: functional; details: OCI-Ly10, 72 h, read-out: GI
OCI-Ly10 [36] = assay: Growth inhibition of human OCI-LY10 cells at 1.7 uM incubated for 3 days by Alamar blue dye based fluorescence assay (reference value: 3%); assay type: functional; details: OCI-Ly10, 72 h, read-out: GI
OCI-Ly10 [37] = assay: Growth inhibition of human OCI-LY10 cells at 0.33 uM incubated for 3 days by Alamar blue dye based fluorescence assay (reference value: 3%); assay type: functional; details: OCI-Ly10, 72 h, read-out: GI
OCI-Ly10 [38] = assay: Growth inhibition of human OCI-LY10 cells at 0.13 uM incubated for 3 days by Alamar blue dye based fluorescence assay (reference value: 3%); assay type: functional; details: OCI-Ly10, 72 h, read-out: GI
OCI-LY19 [39] = assay: Growth inhibition of human OCI-LY19 cells at 10 uM incubated for 3 days by Alamar blue dye based fluorescence assay (reference value: 3%); assay type: functional; details: OCI-LY19, 72 h, read-out: GI
OCI-LY19 [40] = assay: Growth inhibition of human OCI-LY19 cells at 3.3 uM incubated for 3 days by Alamar blue dye based fluorescence assay (reference value: 3%); assay type: functional; details: OCI-LY19, 72 h, read-out: GI
OCI-LY19 [41] = assay: Growth inhibition of human OCI-LY19 cells at 1.7 uM incubated for 3 days by Alamar blue dye based fluorescence assay (reference value: 3%); assay type: functional; details: OCI-LY19, 72 h, read-out: GI
OCI-LY19 [42] = assay: Growth inhibition of human OCI-LY19 cells at 0.33 uM incubated for 3 days by Alamar blue dye based fluorescence assay (reference value: 3%); assay type: functional; details: OCI-LY19, 72 h, read-out: GI
OCI-LY19 [43] = assay: Growth inhibition of human OCI-LY19 cells at 0.13 uM incubated for 3 days by Alamar blue dye based fluorescence assay (reference value: 3%); assay type: functional; details: OCI-LY19, 72 h, read-out: GI
OCI-Ly10 [44] = assay: Antitumor activity against human OCI-LY10 cells xenografted in CB.17 SCID mouse assessed as inhibition of tumor growth at 100 mg/kg, po QD dosed 34 days after tumor cell inoculation; assay type: functional, organism-based
OCI-Ly10 [45] = assay: Antitumor activity against human OCI-LY10 cells xenografted in CB.17 SCID mouse assessed as induction of tumor regression at 100 mg/kg, po QD dosed 34 days after tumor cell inoculation and co-treated with 12 mg/kg, po QD ibrutinib; assay type: functional, organism-based

COC(=O)N1CCN([C@H]2CC[C@H](Nc3nc(Nc4cnn(C)c4)nc4ccc(CC#N)nc34)CC2)CC1
IC50 [1]: 4 nM
IC50 [2]: 46 nM
logD [3]: 2.3
hepatocyte CLint [4]: 10 µL/min/1e6 cells
hepatocyte CLint [5]: 10 µL/min/1e6 cells
Papp [6]: 9.3 ×10⁻⁶ cm/s
efflux ratio [7]: 24
inhibition [8]: 104%
inhibition [9]: 70%
IC50 [10]: 27 nM
IC50 [11]: 3100 nM
IC50 [12]: 1400 nM
IC50 [13]: > 10000 nM
IC50 [14]: 1000 nM
IC50 [15]: 17000 nM
IC50 (CDK8/Cyclin C): > 10000 nM
IC50 [16]: 13000 nM
Ratio IC50 (Homo sapiens [17]): 6.8
Ratio IC50 (Homo sapiens [18]): 775
Ratio IC50 (Homo sapiens [19]): 350
Ratio IC50 (Homo sapiens [20]): > 2500
Ratio IC50 (Homo sapiens [21]): 250
Ratio IC50 (Homo sapiens [22]): 4250
Ratio IC50 (Homo sapiens [23]): > 2500
Ratio IC50 (Homo sapiens [24]): 3250
inhibition [25]: 100%
fraction unbound [26]: 0.23
fraction unbound [27]: 0.44
fraction unbound [28]: 0.3
clearance [29]: 25 mL/min/kg
Vd [30]: 4.5 L/kg
bioavailability [31]: 10%
AUC [32]: 23 µM·h
solubility [33]: 29 µM (≈ 14.6 µg/mL)
inhibition of growth at 10 µM (OCI-Ly10 [34]): 82%
inhibition of growth at 3.3 µM (OCI-Ly10 [35]): 44%
inhibition of growth at 1.7 µM (OCI-Ly10 [36]): 25%
inhibition of growth at 0.33 µM (OCI-Ly10 [37]): 12%
inhibition of growth at 0.13 µM (OCI-Ly10 [38]): 8%
inhibition of growth at 10 µM (OCI-LY19 [39]): 88%
inhibition of growth at 3.3 µM (OCI-LY19 [40]): 50%
inhibition of growth at 1.7 µM (OCI-LY19 [41]): 31%
inhibition of growth at 0.33 µM (OCI-LY19 [42]): 10%
inhibition of growth at 0.13 µM (OCI-LY19 [43]): 6%
TGI (OCI-Ly10 [44]): Active
Activity (OCI-Ly10 [45]): Active
